Experimental data reported in ChEMBL document CHEMBL1146329, “Structure-activity relationship in the 3-iodo-4-phenoxypyridinone (IOPY) series: The nature of the C-3 substituent on anti-HIV activity” (Bioorg Med Chem Lett, 2007).

Legend:
[1] = system: Human immunodeficiency virus 1; assay: Antiviral activity against HIV1 LAI assessed as inhibition of viral-induced cytopathicity in MT4 cells by MTT method; assay type: functional, organism-based; settings: Human immunodeficiency virus 1, LAI
[2] = system: Human immunodeficiency virus 1; assay: Antiviral activity against HIV1 with RT 103N mutant assessed as inhibition of viral-induced cytopathicity in MT4 cells by MTT method; assay type: functional, organism-based; settings: Human immunodeficiency virus 1, MT4
[3] = system: Human immunodeficiency virus 1; assay: Antiviral activity against HIV1 RT 181C mutant assessed as inhibition of viral-induced cytopathicity in MT4 cells by MTT method; assay type: functional, organism-based; settings: Human immunodeficiency virus 1, MT4
[4] = system: Human immunodeficiency virus 1; assay: Antiviral activity against HIV1 RT 188L mutant assessed as inhibition of viral-induced cytopathicity in MT4 cells by MTT method; assay type: functional, organism-based; settings: Human immunodeficiency virus 1, MT4
[5] = system: Human immunodeficiency virus 1; assay: Antiviral activity against HIV1 RT 100I mutant assessed as inhibition of viral-induced cytopathicity in MT4 cells by MTT method; assay type: functional, organism-based; settings: Human immunodeficiency virus 1, MT4
[6] = Selectivity index, ratio of CC50 for MT4 cells to IC50 for HIV1 LAI; assay type: functional
[7] = system: Human immunodeficiency virus 1; assay: Antiviral activity against HIV1 RT 100I/103N mutant assessed as inhibition of viral-induced cytopathicity in MT4 cells by MTT method; assay type: functional, organism-based; settings: Human immunodeficiency virus 1, MT4
[8] = system: Human immunodeficiency virus 1; assay: Antiviral activity against HIV1 RT 103N/181C mutant assessed as inhibition of viral-induced cytopathicity in MT4 cells by MTT method; assay type: functional, organism-based; settings: Human immunodeficiency virus 1, MT4

CCc1c(C)[nH]c(=O)c(C2CC2)c1Oc1cc(C)cc(C)c1
IC50 [1]: 6.3 nM
IC50 [2]: 199 nM
IC50 [3]: 158 nM
IC50 [4]: 158 nM
IC50 [5]: 39.8 nM
Ratio CC50/IC50 [6]: 1259

CCc1c(C)[nH]c(=O)c(C#N)c1Oc1cc(C)cc(C)c1
IC50 [1]: 79.4 nM

CCc1c(C)[nH]c(=O)c(CO)c1Oc1cc(C)cc(C)c1
IC50 [1]: 19.9 nM
Ratio CC50/IC50 [6]: 5012

O=C1Nc2ccc(Cl)cc2C(C#CC2CC2)(C(F)(F)F)O1 (single isomer, unassigned) [EFAVIRENZ]
IC50 [7]: 1000 nM

CCc1c(C)[nH]c(=O)c(/C=C/I)c1Oc1cc(C)cc(C)c1
IC50 [1]: 100 nM

CCc1c(C)[nH]c(=O)c(Br)c1Oc1cc(C)cc(C)c1
IC50 [1]: 1.99 nM
IC50 [2]: 39.8 nM
IC50 [3]: 63.1 nM
IC50 [4]: 631 nM
IC50 [7]: 63.1 nM
IC50 [8]: 158 nM
Ratio CC50/IC50 [6]: 90119

CCc1c(C)[nH]c(=O)c(SCCC(N)=O)c1Oc1cc(C)cc(C)c1
IC50 [1]: 12.5 nM
IC50 [2]: 316 nM
IC50 [3]: 794 nM
IC50 [4]: 2510 nM
IC50 [5]: 158 nM
Ratio CC50/IC50 [6]: 1995

CCc1c(C)[nH]c(=O)c(SC)c1Oc1cc(C)cc(C)c1
IC50 [1]: 1.99 nM
IC50 [2]: 31.6 nM
IC50 [3]: 31.6 nM
IC50 [4]: 125 nM
IC50 [5]: 19.9 nM
IC50 [7]: 63.1 nM
IC50 [8]: 31.6 nM
Ratio CC50/IC50 [6]: 25119

CCc1c(C)[nH]c(=O)c(C#Cc2ccccc2)c1Oc1cc(C)cc(C)c1
IC50 [1]: 15800 nM

CCOC(=O)/C=C/c1c(Oc2cc(C)cc(C)c2)c(CC)c(C)[nH]c1=O
IC50 [1]: 6310 nM

CCc1c(C)[nH]c(=O)c(OC)c1Oc1cc(C)cc(C)c1
IC50 [1]: 2.5 nM
IC50 [2]: 79.4 nM
IC50 [3]: 158 nM
IC50 [4]: 794 nM
IC50 [5]: 31.6 nM
IC50 [7]: 316 nM
IC50 [8]: 501 nM
Ratio CC50/IC50 [6]: 39811

CCc1c(C)[nH]c(=O)c(/C=C/CO)c1Oc1cc(C)cc(C)c1
IC50 [1]: 63.1 nM

C/C=C/c1c(Oc2cc(C)cc(C)c2)c(CC)c(C)[nH]c1=O
IC50 [1]: 39.8 nM

CCc1c(C)[nH]c(=O)c(-c2ccco2)c1Oc1cc(C)cc(C)c1
IC50 [1]: 15.8 nM
Ratio CC50/IC50 [6]: 126

C=Cc1c(Oc2cc(C)cc(C)c2)c(CC)c(C)[nH]c1=O
IC50 [1]: 3.1 nM
IC50 [2]: 3.1 nM
IC50 [3]: 19.9 nM
IC50 [4]: 12.5 nM
IC50 [5]: 6.3 nM
IC50 [8]: 200 nM
Ratio CC50/IC50 [6]: 6309

CCc1c(C)[nH]c(=O)c(CC)c1Oc1cc(C)cc(C)c1
IC50 [1]: 3.1 nM
IC50 [2]: 39.8 nM
IC50 [3]: 39.8 nM
IC50 [4]: 63.1 nM
IC50 [5]: 12.5 nM
Ratio CC50/IC50 [6]: 3162

CCc1c(C)[nH]c(=O)c(Cl)c1Oc1cc(C)cc(C)c1
IC50 [1]: 6.3 nM
IC50 [2]: 19.9 nM
IC50 [3]: 100 nM
IC50 [4]: 398 nM
IC50 [5]: 31.6 nM
Ratio CC50/IC50 [6]: 10000

CCc1c(C)[nH]c(=O)c(/C=N/O)c1Oc1cc(C)cc(C)c1
IC50 [1]: 31.6 nM

CCc1c(C)[nH]c(=O)c(C(C)C)c1Oc1cc(C)cc(C)c1
IC50 [1]: 19.9 nM
IC50 [2]: 39.8 nM
IC50 [3]: 39.8 nM
IC50 [4]: 31.6 nM
IC50 [5]: 12.5 nM
Ratio CC50/IC50 [6]: 5012

CCSc1c(Oc2cc(C)cc(C)c2)c(CC)c(C)[nH]c1=O
IC50 [1]: 125 nM

CCOC(=O)c1c(Oc2cc(C)cc(C)c2)c(CC)c(C)[nH]c1=O
IC50 [1]: 631 nM

CCc1c(C)[nH]c(=O)c(I)c1Oc1cc(C)cc(C)c1
IC50 [1]: 1.25 nM
IC50 [2]: 3.16 nM
IC50 [3]: 19.9 nM
IC50 [4]: 50.1 nM
IC50 [5]: 6.31 nM
IC50 [7]: 19.9 nM
IC50 [8]: 39.8 nM
Ratio CC50/IC50 [6]: 9000

CCc1c(C)[nH]c(=O)c([S+](C)[O-])c1Oc1cc(C)cc(C)c1 (stereo unspecified)
IC50 [1]: 15.8 nM
Ratio CC50/IC50 [6]: 6309

CCc1c(C)[nH]c(=O)c(-c2ccsc2)c1Oc1cc(C)cc(C)c1
IC50 [1]: 50.1 nM

CCc1c(C)[nH]c(=O)c(Sc2ccccc2)c1Oc1cc(C)cc(C)c1
IC50 [1]: 10 nM
IC50 [2]: 794 nM
IC50 [3]: 158 nM
IC50 [4]: 794 nM
IC50 [5]: 125 nM
IC50 [7]: 1580 nM
IC50 [8]: 1580 nM
Ratio CC50/IC50 [6]: 5012

CCc1c(C)[nH]c(=O)c(C(F)(F)F)c1Oc1cc(C)cc(C)c1
IC50 [1]: 3.1 nM
IC50 [2]: 12.5 nM
IC50 [3]: 50.1 nM
IC50 [4]: 199 nM
IC50 [5]: 31.6 nM
Ratio CC50/IC50 [6]: 12589

CCc1c(Oc2cc(C)cc(C)c2)cc(=O)[nH]c1C
IC50 [1]: 398 nM

CCc1c(C)[nH]c(=O)c(C(=O)N(C)C)c1Oc1cc(C)cc(C)c1
IC50 [1]: 5020 nM
